From paper PMC12612871, “Novel 1,3-Diazepines as Nontoxic Corrosion Inhibitors” (ACS Omega, 2025)
Where two headings read alike, the source gives them in different places.

Columns and labels:
[1] = Mass loss (gravimetric) corrosion inhibition test; settings: 2 mmol L–1 inhibitor, 5% (v/v) DMSO in HCl 1 mol L–1, 4 h immersion, relative to solution without inhibitor
Description: SAE 1020 steel plates, with a composition of C (0.18–0.23%), Mn (0.3–0.6%), P (0.03%), and S (0.05%), and dimensions of 2.5 × 2.5 × 0.13 cm, were polished sequentially using emery papers of increasing grit sizes (150, 220, 320, 400 and 600). After polishing, the plates were thoroughly rinsed with deionized (Milli-Q) water.
A control solution was prepared by dissolving 5% (v/v) dimethyl sulfoxide in HCl 1 mol L^–1. Inhibitor-containing solutions were prepared by adding 2 mmol L^–1 of the inhibitor to 5% (v/v) dimethyl sulfoxide in HCl 1 mol L^–1 using deionized (Milli-Q) water. SAE 1020 steel plates were immersed in these solutions for a duration of 4 h.
The gravimetric method was employed to evaluate corrosion resistance by weighing the steel plates before and after immersion in the aqueous HCl solution. The mass loss (w) was calculated as the difference between the average initial mass (m i) and final mass (m f) of each plate (eq ). This information was subsequently used to determine the inhibition efficiency (IE) according to eq , where w 0 and w represent the mass losses in the absence and presence of the inhibitor, respectively. All measurements were performed in triplicate to ensure accuracy and reliability, and the reported values correspond to the average of these three determinations. , 5 w=[…] 6 IE(%)=(w^0−w)/w^0.100

[2] = system: TOV-21G human ovarian adenocarcinoma cell line; assay: MTT cell viability assay, TOV-21G; type: cell-based; settings: 48 h, 0.01 to 100 μM, read-out: IC50 (μM) ± S.D TOV-21G
Description: (§1) The MDA-MB-231 human breast adenocarcinoma cell line (ATCC HTB-26), A549 human lung carcinoma cell line (ATCC CCL-185), TOV-21G human ovarian adenocarcinoma cell line (ATCC CRL-11730), and WI-26VA4 human lung fibroblast cell line (ATCC CCL-95.1) were cultured in RPMI-1640 medium supplemented with 10% fetal bovine serum (FBS) and gentamicin (100 μg/mL). Cells were maintained at 37 °C in a humidified atmosphere containing 5% CO2.
(§2) Cell viability was assessed using the MTT assay (3-[4,5-dimethylthiazol-2-yl]-2,5-diphenyl-tetrazolium bromide). Briefly, 100 μL of complete medium containing 1 × 10^4 cells was added to each well of a 96-well tissue culture plate. Cells were incubated at 37 °C in a humidified atmosphere with 5% CO2 for 24 h prior to treatment. Following medium removal, 100 μL of fresh medium containing the test compounds at concentrations ranging from 0.01 to 100 μM was added to each well, and cells were incubated for 48 h under the same conditions. All compounds were presolubilized in dimethyl sulfoxide (DMSO), and the final DMSO concentration in all treatments was maintained at ≤ 0.2% to avoid interference with cell viability.
(§3) After treatment, the medium was replaced with 100 μL of MTT solution (0.5 mg/mL) per well, followed by a 3 h incubation. Formazan crystals were dissolved by adding 100 μL of DMSO to each well, and absorbance was measured at 550 nm using a microplate reader (SpectraMax M5e, Molecular Devices, Sunnyvale, CA, USA). The percentage of growth inhibition was calculated as [1-(Abs of treated/Abs of control)]×100. All experiments were conducted in triplicate, and results are expressed as mean IC50 values, which were determined using OriginPro 8.0 software (OriginLab Corporation, Northampton, MA, USA).

[3] = system: MDA-MB-231 human breast adenocarcinoma cell line; assay: MTT cell viability assay, MDA-MB-231; type: cell-based; settings: 0.01 to 100 μM, read-out: IC50 (μM) ± S.D MDA-MB-231
Description: as §1, §2, §3

[4] = system: A549 human lung carcinoma cell line; assay: MTT cell viability assay, A549; type: cell-based; settings: 0.01 to 100 μM, read-out: IC50 (μM) ± S.D A549
Description: as §1, §2, §3

[5] = system: WI-26VA4 human lung fibroblast cell line; assay: MTT cell viability assay, WI-26VA4; type: cell-based; settings: 0.01 to 100 μM, read-out: IC50 (μM) ± S.D WI-26VA4
Description: as §1, §2, §3

In the case of “2-(nitromethylene)-1,3-diazepine [compound 10]”, the “IE (%) corrosion inhibition efficiency by mass loss” value [1] is reported as 91 ± 0.7%, the IC50 [2] is reported as > 100 µM and the IC50 ([3]; 48 h) is reported as > 100 µM. The IC50 ([4]; 48 h) was > 100 µM and the IC50 ([5]; 48 h) was > 100 µM.
With `N#CC(C#N)=C1NCCCCN1` [compound 11, 2-(1,3-Diazepan-2-ylidene)-malononitrile] the “IE (%) corrosion inhibition efficiency by mass loss” value [1] was 88 ± 0.9%, the IC50 ([2]; Homo sapiens, TOV21G) was > 100 µM and the IC50 ([3]; Homo sapiens, MDA-MB-231, 48 h) was > 100 µM. The IC50 ([4]; Homo sapiens, A549, 48 h) was > 100 µM and the IC50 ([5]; Homo sapiens, WI26VA4, 48 h) was > 100 µM.
In the case of `COC(=O)C(C#N)=C1NCCCCN1` [compound 12, Methyl 2-cyano-2-(1,3-diazepan-2-ylidene)-acetate], the “IE (%) corrosion inhibition efficiency by mass loss” value [1] is reported as 92 ± 0.6%, the IC50 ([2]; Homo sapiens, TOV21G) is reported as > 100 µM and the IC50 ([3]; Homo sapiens, MDA-MB-231, 48 h) is reported as > 100 µM. For the same compound, the IC50 ([4]; Homo sapiens, A549, 48 h) was > 100 µM and the IC50 ([5]; Homo sapiens, WI26VA4, 48 h) was > 100 µM.
With `CCOC(=O)C(C(=O)OCC)=C1NCCCCN1` [compound 13, Diethyl 2-(1,3-diazepan-2-ylidene)-malonate] the “IE (%) corrosion inhibition efficiency by mass loss” value [1] was 19 ± 5.4%, the IC50 ([2]; Homo sapiens, TOV21G) was > 100 µM and the IC50 ([3]; Homo sapiens, MDA-MB-231, 48 h) was > 100 µM. The IC50 ([4]; Homo sapiens, A549, 48 h) was > 100 µM and the IC50 ([5]; Homo sapiens, WI26VA4, 48 h) was > 100 µM.
With `N#CC(C(=O)c1ccccc1)=C1NCCCCN1` [compound 14, 2-(1,3-Diazepan-2-ylidene)-3-oxo-3-phenylpropanenitrile] the “IE (%) corrosion inhibition efficiency by mass loss” value [1] was 94 ± 2.5%, the IC50 ([2]; Homo sapiens, TOV21G) was > 100 µM and the IC50 ([3]; Homo sapiens, MDA-MB-231, 48 h) was > 100 µM. The IC50 ([5]; Homo sapiens, WI26VA4, 48 h) was > 100 µM.
For `COc1cccc2c1C(=O)c1c(O)c3c(c(O)c1C2=O)C[C@@](O)(C(=O)CO)C[C@@H]3O[C@H]1C[C@H](N)[C@H](O)[C@H](C)O1` [doxorubicin, reference compound], the IC50 ([2]; Homo sapiens, TOV21G) was 8.3 ± 4 µM, the IC50 ([3]; Homo sapiens, MDA-MB-231, 48 h) was 2.6 ± 0.8 µM and the IC50 ([4]; Homo sapiens, A549, 48 h) was 0.67 ± 0.4 µM. For the same compound, the IC50 ([5]; Homo sapiens, WI26VA4, 48 h) was 7 ± 2 µM.
